Laboratory results reported in PMC6583902 (Biochemistry, 2013).

Test system: C. elegans Sem-5 (sex muscle five) Src-homology 3 (SH3) domain
Details: stated in words

- apparent binding constant measured by ITC: only in the millimolar range
Substance: Ac-VPPXVPPRRRY [proline]
